Assay results: patent US7786141B2 (Vertex Pharmaceuticals Incorporated, priority 2004, dated 2010)
pEC50: −log10 of the molar value. Read-outs that look alike come from different tables or passages of the source.

What was measured:
M4 muscarinic receptor = target: T1, M4 muscarinic receptor (Homo sapiens, UniProt P08173); experiment: Functional mobilization of intracellular calcium (FLIPR) in M4-CHO cells; format: cell-based; conditions: for M4 Activity: modulating M4 receptor
T1 construct: expressed in transfected cells; host or cells: CHO (M4-CHO)
T1 sequence (P08173 1-479): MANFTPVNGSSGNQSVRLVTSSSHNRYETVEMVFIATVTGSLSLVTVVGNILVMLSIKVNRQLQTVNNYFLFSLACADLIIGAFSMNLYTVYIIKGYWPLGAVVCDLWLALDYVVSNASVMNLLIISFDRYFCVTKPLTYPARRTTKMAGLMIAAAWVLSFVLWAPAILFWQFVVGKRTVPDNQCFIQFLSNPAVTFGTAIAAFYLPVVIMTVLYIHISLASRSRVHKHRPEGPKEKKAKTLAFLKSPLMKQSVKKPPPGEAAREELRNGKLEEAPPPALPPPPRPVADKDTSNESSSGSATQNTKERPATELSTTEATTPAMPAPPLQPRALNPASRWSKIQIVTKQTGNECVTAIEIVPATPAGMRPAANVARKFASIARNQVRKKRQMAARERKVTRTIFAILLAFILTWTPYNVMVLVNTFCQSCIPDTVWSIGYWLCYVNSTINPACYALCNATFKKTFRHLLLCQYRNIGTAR
In short: (§1)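 Measured via Fluo-3 fluorescence on a FLIPR, CHO cells with either muscarinic subtype received compound in 0.5% DMSO. Antagonism was assessed after 15 min pre-incubation followed by carbachol at each subtype's EC80; agonism from compound addition alone.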

M1 muscarinic receptor = target: T2, M1 muscarinic receptor (Homo sapiens, UniProt P11229); experiment: Functional mobilization of intracellular calcium (FLIPR) in M1-CHO cells; format: cell-based; conditions: for M1 Activity: modulating M1 receptor
T2 construct: expressed in transfected cells; host or cells: CHO (M1-CHO)
T2 sequence (P11229 1-460): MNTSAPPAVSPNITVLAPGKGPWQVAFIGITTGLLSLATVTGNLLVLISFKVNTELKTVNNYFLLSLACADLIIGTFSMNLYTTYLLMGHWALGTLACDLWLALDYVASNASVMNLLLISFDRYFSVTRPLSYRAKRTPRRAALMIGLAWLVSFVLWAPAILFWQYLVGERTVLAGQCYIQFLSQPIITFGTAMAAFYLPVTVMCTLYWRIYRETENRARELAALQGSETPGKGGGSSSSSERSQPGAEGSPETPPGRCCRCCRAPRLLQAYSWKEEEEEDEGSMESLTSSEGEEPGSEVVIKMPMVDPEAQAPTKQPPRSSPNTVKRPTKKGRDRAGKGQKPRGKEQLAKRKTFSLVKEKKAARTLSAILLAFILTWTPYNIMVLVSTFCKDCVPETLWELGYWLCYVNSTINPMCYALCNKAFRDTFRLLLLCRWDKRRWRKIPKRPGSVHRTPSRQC
In short: as §1

[1] = M4-CHO cells, calcium mobilization (FLIPR)
[2] = M4-CHO cells, calcium mobilization (FLIPR), read-out: M4 Efficacy
[3] = M1-CHO cells, calcium mobilization (FLIPR)
[4] = M1-CHO cells, calcium mobilization (FLIPR), read-out: M1 Efficacy
[5] = Table 4, 100% efficacy is the maximum response obtained with the Carbachol control

Compound | pEC50 (M4 muscarinic receptor; [1]) | Emax (M4 muscarinic receptor; [2]) | pEC50 (M1 muscarinic receptor; [3]) | Emax (M1 muscarinic receptor; [4]) | M4 Efficacy (M4 muscarinic receptor; [1]) | M1 Efficacy (M1 muscarinic receptor; [3]) | Emax (M4 muscarinic receptor; [5]) | M4 Activity (M4 muscarinic receptor; Table 4) | Emax (M1 muscarinic receptor; [5]) | M1 Activity (M1 muscarinic receptor; Table 4)
COCCOC(=O)N1CCC(CN2CCC3(CC2)C[C@H](NC(C)=O)c2ccccc23)CC1 [compound 412] | < 6.00 | < 65% | 6.00 to 7.00 | < 65% |  |  |  |  |  | 
CCOC(=O)N1CCC(N2CCC3(CC2)CN(C(C)=O)c2ccc(F)cc23)CC1 [compound 413] | 6.00 to 7.00 | < 65% | > 7.00 | < 65% |  |  |  |  |  | 
CCOC(=O)N1CCC(CN2CCC3(CCc4ccccc43)CC2)CC1 [compound 414] | < 6.00 | < 65% | < 6.00 | < 65% |  |  |  |  |  | 
Clc1ccc2c(c1)C1(CCN(CC3CCOCC3)CC1)CO2 [compound 415] | < 6.00 | < 65% | < 6.00 | < 65% |  |  |  |  |  | 
Fc1ccc2c(c1)C1(CCN(C3CC4CCC3C4)CC1)CN2 (stereo not drawn) [compound 416] | < 6.00 | < 65% | < 6.00 | < 65% |  |  |  |  |  | 
CCOC(=O)N1C2CCC1CC(N1CCC3(CC1)CN(C(C)=O)c1ccc(Cl)cc13)C2 (stereo not drawn) [compound 417] | < 6.00 | < 65% | 6.00 to 7.00 | < 65% |  |  |  |  |  | 
CC(=O)N1CC2(CCN(C3CCN(C(=O)O[C@H]4CCOC4)CC3)CC2)c2cc(F)ccc21 [compound 418] | < 6.00 | < 65% | < 6.00 | < 65% |  |  |  |  |  | 
COCCOC(=O)N1CCC(CN2CCC3(CC2)CN(C(C)=O)c2ccc(C)cc23)CC1 [compound 419] | < 6.00 | < 65% | < 6.00 | < 65% |  |  |  |  |  | 
c1ccc2c(c1)NCC21CCN(C2CC3CCC(C3)C2)CC1 (stereo not drawn) [compound 420] | < 6.00 | < 65% | 6.00 to 7.00 | < 65% |  |  |  |  |  | 
CC(=O)NC1CC2(CCN(C[C@@H]3C[C@H]4C=C[C@H]3C4)CC2)c2ccccc21 (stereo partly drawn) [compound 421] | < 6.00 |  | < 6.00 |  | x (efficacy was calculated to be less than 65%) | x (efficacy was calculated to be less than 65%) |  |  |  | 
COCCOC(=O)N1CC2(CCN(C3CC4CCC(C3)N4C(=O)OC(C)C)CC2)c2cc(F)ccc21 (stereo not drawn) [compound 422] | < 6.00 | < 65% | > 7.00 | < 65% |  |  |  |  |  | 
COC(=O)N1CCC(CN2CCC3(CC2)CN(C(C)=O)c2ccc(C)cc23)CC1 [compound 423] | < 6.00 | < 65% | 6.00 to 7.00 | < 65% |  |  |  |  |  | 
CC(=O)N1CC2(CCN(C3CCN(C(=O)O[C@@H]4CCOC4)CC3)CC2)c2cc(F)ccc21 [compound 424] | < 6.00 | < 65% | < 6.00 | < 65% |  |  |  |  |  | 
CC(=O)N1CC2(CCN(C3CCCC(C(F)(F)F)C3)CC2)c2cc(F)ccc21 (stereo not drawn) [compound 425] | < 6.00 | < 65% | < 6.00 | < 65% |  |  |  |  |  | 
CCOC(=O)N1CCC(N2CCC3(CC2)CN(C(C)=O)c2ccc(C4=CCCC4)cc23)CC1 [compound 426] | < 6.00 | < 65% | < 6.00 | < 65% |  |  |  |  |  | 
CCOC(=O)N1CCC(N2CCC3(CC2)CN(C(=O)OCC)c2ccc(F)cc23)CC1 [compound 427] | < 6.00 | < 65% | 6.00 to 7.00 | < 65% |  |  |  |  |  | 
CCOC(=O)N1CCC(N2CCC3(CC2)CN(C(=O)O[C@H]2CCOC2)c2ccc(F)cc23)CC1 [compound 428] | < 6.00 | < 65% | 6.00 to 7.00 | < 65% |  |  |  |  |  | 

Compound | pEC50 (M4 muscarinic receptor; [1]) | Emax (M4 muscarinic receptor; [2]) | pEC50 (M1 muscarinic receptor; [3]) | Emax (M1 muscarinic receptor; [4]) | M4 Efficacy (M4 muscarinic receptor; [1]) | M1 Efficacy (M1 muscarinic receptor; [3]) | Emax (M4 muscarinic receptor; [5]) | M4 Activity (M4 muscarinic receptor; Table 4) | Emax (M1 muscarinic receptor; [5]) | M1 Activity (M1 muscarinic receptor; Table 4)
Fc1ccc2c(c1)C1(CCN(C[C@@H]3C[C@H]4CC[C@H]3O4)CC1)CN2 [compound 429] | < 6.00 | < 65% | 6.00 to 7.00 | < 65% |  |  |  |  |  | 
CCOC(=O)N1CCC(N2CCC3(CC2)C[C@@H](NC(C)=O)c2ccccc23)CC1 [compound 430] | < 6.00 | < 65% | 6.00 to 7.00 | < 65% |  |  |  |  |  | 
CCOC(=O)N1CCC(N2CCC3(CC2)CN(C(C)=O)c2c(F)ccc(F)c23)CC1 [compound 431] |  |  |  |  |  |  | 25 to 100% | xx (activity was measured to be between 2.0 μM and 5.0 μM) | 25 to 100% | xx (activity was measured to be between 2.0 μM and 5.0 μM)
CC(C)C(=O)N[C@@H]1CC2(CCN(C[C@H]3C[C@H]4CC[C@H]3C4)CC2)c2ccccc21 [compound 432] |  |  |  |  |  |  | < 25% | x (activity was measured to be greater than 5.0 μM) | < 25% | x (activity was measured to be greater than 5.0 μM)
CCOC(=O)N1CCC(N2CCC3(CC2)CN(C(=O)Nc2ccccc2)c2ccccc23)CC1 [compound 433] |  |  |  |  |  |  | 25 to 100% | xxx (activity was measured to be less than 2.0 μM) | > 100% | xxx (activity was measured to be less than 2.0 μM)
CCOC(=O)N1CCC(N2CCC3(CC2)CN(C(C)=O)c2c(-c4ccc(OC)cc4)cccc23)CC1 [compound 434] |  |  |  |  |  |  | 25 to 100% | xxx (activity was measured to be less than 2.0 μM) | 25 to 100% | x (activity was measured to be greater than 5.0 μM)
CN(C)C(=O)N1CC2(CCN(C3CCN(C(=O)c4ccco4)CC3)CC2)c2cc(F)ccc21 [compound 435] |  |  |  |  |  |  | 25 to 100% | xxx (activity was measured to be less than 2.0 μM) | 25 to 100% | xxx (activity was measured to be less than 2.0 μM)
CC(=O)N[C@H]1CC2(CCN(C3CCN(C)CC3C)CC2)c2ccccc21 (stereo partly drawn) [compound 436] |  |  |  |  |  |  | < 25% | x (activity was measured to be greater than 5.0 μM) | < 25% | x (activity was measured to be greater than 5.0 μM)
CC(=O)N[C@@H]1CC2(CCN(C3CCOCC3)CC2)c2ccccc21 [compound 437] |  |  |  |  |  |  | < 25% | x (activity was measured to be greater than 5.0 μM) | < 25% | x (activity was measured to be greater than 5.0 μM)
CN(C)C(=O)N[C@H]1CC2(CCN(C[C@@H]3C[C@H]4C=C[C@H]3C4)CC2)c2ccccc21 [compound 438] |  |  |  |  |  |  | < 25% | xxx (activity was measured to be less than 2.0 μM) | 25 to 100% | xxx (activity was measured to be less than 2.0 μM)
CC(=O)N1CC2(CCN(C3CC4CCC(C3)N4C(=O)OCC3CC3)CC2)c2ccccc21 (stereo not drawn) [compound 439] |  |  |  |  |  |  | 25 to 100% | xxx (activity was measured to be less than 2.0 μM) | 25 to 100% | xxx (activity was measured to be less than 2.0 μM)
CC(=O)N1CC2(CCN(C3CCN(C(=O)OC(C)C)CC3)CC2)c2ccccc21 [compound 440] |  |  |  |  |  |  | 25 to 100% | xxx (activity was measured to be less than 2.0 μM) | 25 to 100% | xxx (activity was measured to be less than 2.0 μM)
CC(=O)N1CC2(CCN(C3CCN(C(C)C)CC3)CC2)c2cc(F)ccc21 [compound 441] |  |  |  |  |  |  | < 25% | x (activity was measured to be greater than 5.0 μM) | < 25% | x (activity was measured to be greater than 5.0 μM)
COc1cc2c(cc1OC)C1(CCN(C3CCCCCC3)CC1)C[C@@H]2NC(C)=O [compound 442] |  |  |  |  |  |  | < 25% | x (activity was measured to be greater than 5.0 μM) | < 25% | x (activity was measured to be greater than 5.0 μM)
C#CCOC(=O)N1CC[C@H](CN2CCC3(CC2)CN(C(=O)N(C)C)c2ccc(F)cc23)C1 [compound 443] |  |  |  |  |  |  | > 100% | xxx (activity was measured to be less than 2.0 μM) | > 100% | xxx (activity was measured to be less than 2.0 μM)
CCOC(=O)N1C2CCC1CC(N1CCC3(CC1)CN(C(C)=O)c1c(C)cccc13)C2 (stereo not drawn) [compound 444] |  |  |  |  |  |  | 25 to 100% | xx (activity was measured to be between 2.0 μM and 5.0 μM) | 25 to 100% | xx (activity was measured to be between 2.0 μM and 5.0 μM)
